From patent US10053451B2, “Heterocyclic estrogen receptor modulators and uses thereof” (priority 2015, dated 2018) come the findings set out here.

For orientation: IC50 means the concentration needed to halve the response being measured.

What all share (type): cell-based
For assay [1], the system named is MCF-7 cells. Briefly: Breast Cancer Cell Viability Assay (CellTiter-Glo). As to conditions: 5 days of compound exposure; for IC50: Homo sapiens, MCF7, 120 h, read-out: MCF7 viab IC50. On the procedure:
The following day a 10 point, serial 1:5 dilution of each compound was added to the cells in 16 μL at a final concentration ranging from 10-0.00000 μM. After 5 days of compound exposure, 16 μL of CellTiter-GLo (Promega, Madison Wis.) was added to the cells, and the relative luminescence units (RLUs) of each well were determined. CellTiter-Glo added to 32 μL of medium without cells was used to obtain a background value.

Assay [2] deals with T1, ER-α (Homo sapiens, UniProt P03372).
T1 construct: MCF7 cells were trypsinized and washed twice; endogenous in cells; host or cells: MCF7 breast cancer cells
T1 sequence (P03372 1-595): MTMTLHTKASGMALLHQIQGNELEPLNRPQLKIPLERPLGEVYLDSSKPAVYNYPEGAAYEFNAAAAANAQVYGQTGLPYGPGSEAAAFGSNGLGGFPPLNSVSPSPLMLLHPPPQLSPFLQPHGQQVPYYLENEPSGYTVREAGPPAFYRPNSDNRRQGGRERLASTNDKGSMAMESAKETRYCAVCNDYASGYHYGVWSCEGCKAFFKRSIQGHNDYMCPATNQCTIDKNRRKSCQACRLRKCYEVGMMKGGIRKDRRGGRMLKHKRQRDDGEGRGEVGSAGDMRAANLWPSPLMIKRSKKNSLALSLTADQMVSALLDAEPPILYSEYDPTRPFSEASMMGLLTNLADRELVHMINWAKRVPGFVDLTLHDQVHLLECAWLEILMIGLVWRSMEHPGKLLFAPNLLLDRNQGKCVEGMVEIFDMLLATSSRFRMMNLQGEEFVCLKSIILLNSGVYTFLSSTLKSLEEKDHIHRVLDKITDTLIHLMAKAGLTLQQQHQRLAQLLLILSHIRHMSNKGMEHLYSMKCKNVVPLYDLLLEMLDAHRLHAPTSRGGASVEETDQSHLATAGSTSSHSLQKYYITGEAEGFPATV
Briefly: ER-α In Cell Western Assay. To be noted: MCF7 cells, 4 hours post compound addition, SP1 anti-ER antibody; read-out: ICW (SP1) max response. The protocol:
MCF7 cells were trypsinized and washed twice in Phenol Red Free RPMI containing 5% Charcoal Dextran Stripped serum with 20 mM HEPES and NEAA, then adjusted to a concentration of 200,000 cells per mL with the same medium. Next, 16 μL of the cell suspension (3200 cells) was added to each well of a poly-D-lysine coated 384 well plate, and the cells were incubated at 37° C. over 4 days to allow the cells to adhere and grow. […] At 4 hours post compound addition, the cells were fixed by adding 16 μL of 30% formalin to the 32 μL of cells and compound (10% formalin final concentration) for 20 minutes. Cells were then washed twice with PBS Tween 0.1% and then permeabilized in PBS 0.1% Triton (50 μl/well) for additional 15 minutes. The PBS 0.1% triton was decanted, and the cells were washed: LI-COR blocking buffer (50 μL/well) was added, the plate was spun at 3000 rpm, and then the blocking buffer was decanted. Additional LI-COR blocking buffer (50 μL/well) was added, and the cells were incubated overnight at 4° C. The blocking buffer was decanted, and the cells were incubated overnight at 4° C. with SP1 (Thermo Scientific) anti-ER rabbit monoclonal antibody diluted 1:1000 in LI-COR blocking buffer/0.1% Tween-20. Wells which were treated with blocking buffer with Tween but no antibody were used as a background control. Wells were washed twice with PBS Tween 0.1% to remove free SP1 antibodies, and the cells were incubated at room temp for 60-90 minutes in LI-COR goat anti-rabbit IRDye™ 800CW (1:1000) and DRAQ5 DNA dye (1:10000 of 5 mM stock solution) diluted in LI-COR blocking buffer containing 0.1% Tween-20 and 0.01% SDS. Cells were then washed with 0.1% Tween-20/PBS three times. Plates were scanned on a LI-COR Odyssey infrared imaging system. Integrated intensities in the 800 nm channel and 700 nm channel were measured to determine levels of ER-α and DNA respectively. Percent ER levels were determined as follows: (Integrated intensity […] sample/integrated intensity 700 nm sample)/(Integrated intensity 800 nm untreated cells/integrated intensity 700 nm untreated cells)×100=% ER levels.

Assay [3] addresses T2, estrogen receptor alpha (ESR1) (Homo sapiens, UniProt P03372).
T2 construct: MCF7 cells were trypsinized and washed twice; endogenous in cells; host or cells: MCF7 breast cancer cells
T2 sequence (P03372 1-595): T1 sequence (P03372 1-595)
Briefly: Breast Cancer Cell ERa High Content Fluorescence Imaging Assay (ER-alpha MCF7 Assay). As to conditions: MCF7 cells, 4 hours; plateau of maximal effect; DMSO = 0%, 5 nM Fulvestrant = 100% change in ESR1. The protocol:
Cell plates were incubated at 37° C., for 4 hours. Fixation and permeabilization were carried out using a Biotek EL406 plate washer and dispenser as follows. […] Samples were incubated 30 minutes. Well contents was aspirated and 50 uL/well of Phosphate Buffered Saline (PBS) containing 0.5% w/v bovine serum albumen, 0.5% v/v Triton X-100 (Antibody Dilution Buffer) was added to each well. Samples were incubated for 30 minutes. Well contents were aspirated and washed 3 times with 100 uL/well of PBS. Immunofluorescence staining of estrogen receptor alpha (ESR1) was carried out using a Biotek EL406 plate washer and dispenser as follows. […] Samples were incubated for 2 hours at room temperature. Samples were washed 4 times with 100 uL/well of PBS. […] Samples were incubated for 2 hours at room temperature. Samples were washed 3 times with 100 uL/well of PBS using a Biotek EL406. Quantitative fluorescence imaging of ESR1 was carried out using a Cellomics Arrayscan V (Thermo). […] Channel 1 (DNA stain) was used to define the nuclear region (Circ). […] The “Robust Fit” method was used to define the inflexion point of curve (EC50) and the plateau of the maximal effect (Sinf).

Regarding `CC1=C(c2cccc(O)c2)C(c2ccc(OCCN3CCCC3)nc2)Oc2ccc(O)cc21` (centres unmarked) [Example 1, 3-(3-Hydroxyphenyl)-4-methyl-2-(6-(2-(pyrrolidin-1-yl)ethoxy)pyridin-3-yl)-2H-chromen-6-ol], in assay [1], the “MCF7 viab max response” value is 53.6 and the concentration for half-maximal inhibition (IC50) was determined as 0.18 nM. Besides, the Emax in assay [2] is 65.9%.
The matching figures for `CC1=C(c2cccc(O)c2)C(c2ccc(OC[C@H](C)N3CC[C@@H](C)C3)nc2)Oc2ccc(O)cc21` (stereo partly drawn) [Example 2, 3-(3-Hydroxyphenyl)-4-methyl-2-(6-((S)-2-((R)-3-methylpyrrolidin-1-yl)propoxy)pyridin-3-yl)-2H-chromen-6-ol]: 56.9, 0.13 nM and 76.1%.
Turning to `CC1=C(c2cccc(O)c2)C(c2cnc(OC[C@H](C)N3CC[C@@H](C)C3)cn2)Oc2ccc(O)cc21` (stereo partly drawn) [Example 3, 3-(3-Hydroxyphenyl)-4-methyl-2-(5-((S)-2-((R)-3-methylpyrrolidin-1-yl)propoxy)pyrazin-2-yl)-2H-chromen-6-ol], in assay [1], the “MCF7 viab max response” value amounted to 61.1 and the IC50 turned out to be 0.66 nM. Moreover, in assay [2], the Emax is 83.3%.
On the same counts, the results for `CC1=C(c2cccc(O)c2)C(c2cnc(OCCN3CCCC3)cn2)Oc2ccc(O)cc21` (centres unmarked) [Example 4, 3-(3-Hydroxyphenyl)-4-methyl-2-(5-(2-(pyrrolidin-1-yl)ethoxy)pyrazin-2-yl)-2H-chromen-6-ol] are 49.5, 0.36 nM and 70.1%.
Regarding `CC1=C(c2cccc(O)c2)C(c2ccc(OC[C@H](C)N3CC[C@@H](C)C3)cn2)Oc2ccc(O)cc21` (stereo partly drawn) [Example 5, 3-(3-Hydroxyphenyl)-4-methyl-2-(5-((S)-2-((R)-3-methylpyrrolidin-1-yl)propoxy)pyridin-2-yl)-2H-chromen-6-ol], in assay [1], the “MCF7 viab max response” value was 64.2 and the half-inhibitory concentration (IC50) turned out to be 1.23 nM. Moreover, the Emax in assay [2] is 86.7%.
Take `CC1=C(c2cccc(O)c2)C(c2ccc(OCCN3CCCC3)cn2)Oc2ccc(O)cc21` (centres unmarked) [Example 6, 3-(3-Hydroxyphenyl)-4-methyl-2-(5-(2-(pyrrolidin-1-yl)ethoxy)pyridin-2-yl)-2H-chromen-6-ol]: in assay [1], the “MCF7 viab max response” value came to 56.9 and the half-inhibitory concentration (IC50) came out at 7.08 nM. The Emax in assay [2] amounted to 69.9%.
As to `CC1=C(c2cc(O)c(F)c(F)c2)C(c2ccc(OC[C@H](C)N3CC[C@@H](C)C3)cn2)Oc2ccc(O)cc21` (stereo partly drawn) [Example 7, 3-(3,4-Difluoro-5-hydroxyphenyl)-4-methyl-2-(5-((S)-2-((R)-3-methylpyrrolidin-1-yl)propoxy)pyridin-2-yl)-2H-chromen-6-ol], in assay [1], the “MCF7 viab max response” value is reported as 72.1 and the IC50 amounted to 1.29 nM. In addition, in assay [2], the Emax came out at 87.1%.
Regarding `CC1=C(c2ccc(O)cc2)C(c2ccc(OC[C@H](C)N3CC[C@@H](C)C3)cn2)Oc2ccc(O)cc21` (stereo partly drawn) [Example 8, 3-(4-Hydroxyphenyl)-4-methyl-2-(5-((S)-2-((R)-3-methylpyrrolidin-1-yl)propoxy)pyridin-2-yl)-2H-chromen-6-ol], in assay [1], the “MCF7 viab max response” value turned out to be 69.3 and the IC50 came to 1.36 nM. In addition, in assay [2], the Emax is 85.9%.
On the same counts, the results for `CC1=C(c2ccc(O)c(F)c2)C(c2ccc(OC[C@H](C)N3CC[C@@H](C)C3)cn2)Oc2ccc(O)cc21` (stereo partly drawn) [Example 9, 3-(3-Fluoro-4-hydroxyphenyl)-4-methyl-2-(5-((S)-2-((R)-3-methylpyrrolidin-1-yl)propoxy)pyridin-2-yl)-2H-chromen-6-ol] are 71.6, 1.03 nM and 88%.
As to `CC1=C(c2ccc(O)cc2F)C(c2ccc(OC[C@H](C)N3CC[C@@H](C)C3)cn2)Oc2ccc(O)cc21` (stereo partly drawn) [Example 10, 3-(2-Fluoro-4-hydroxyphenyl)-4-methyl-2-(5-((S)-2-((R)-3-methylpyrrolidin-1-yl)propoxy)pyridin-2-yl)-2H-chromen-6-ol], in assay [1], the “MCF7 viab max response” value worked out at 70.9 and the IC50 came out at 0.74 nM. The Emax in assay [2] stood at 83.4%.
With `CC1=C(c2ccc3cn[nH]c3c2)C(c2ccc(OC[C@H](C)N3CC[C@@H](C)C3)cc2)Oc2ccc(O)cc21` (stereo partly drawn) [Example 11, 3-(1H-Indazol-6-yl)-4-methyl-2-(4-((S)-2-((R)-3-methylpyrrolidin-1-yl)propoxy)phenyl)-2H-chromen-6-ol], in assay [1], the “MCF7 viab max response” value is recorded as 55.8 and the half-inhibitory concentration (IC50) worked out at 17 nM. In addition, the Emax in assay [2] is 74.1%.
The matching figures for `CC1=C(c2ccc3[nH]ncc3c2)C(c2ccc(OC[C@H](C)N3CC[C@@H](C)C3)cc2)Oc2ccc(O)cc21` (stereo partly drawn) [Example 12, 3-(1H-Indazol-5-yl)-4-methyl-2-(4-((S)-2-((R)-3-methylpyrrolidin-1-yl)propoxy)phenyl)-2H-chromen-6-ol]: 60.1, 2.56 nM and 74.8%.
As to `CC1=C(c2cccc3[nH]ncc23)C(c2ccc(OC[C@H](C)N3CC[C@@H](C)C3)cc2)Oc2ccc(O)cc21` (stereo partly drawn) [Example 13, 3-(1H-Indazol-4-yl)-4-methyl-2-(4-((S)-2-((R)-3-methylpyrrolidin-1-yl)propoxy)phenyl)-2H-chromen-6-ol], in assay [1], the “MCF7 viab max response” value worked out at 65.9 and the IC50 amounted to 0.9 nM. Moreover, the Emax in assay [2] turned out to be 85.1%.
In the case of `CC1=C(c2cccc(O)c2)C(c2ccc(OC[C@H](C)N3CC[C@@H](C)C3)cc2)Oc2ccc3[nH]ncc3c21` (stereo partly drawn) [Example 14, 3-(9-Methyl-7-(4-((S)-2-((R)-3-methylpyrrolidin-1-yl)propoxy)phenyl)-3,7-dihydropyrano[3,2-e]indazol-8-yl)phenol], in assay [1], the “MCF7 viab max response” value is on record as 62.3 and the IC50 was 0.83 nM. The Emax in assay [2] came out at 77.8%.
For `CC1=C(c2cccc(O)c2)[C@H](c2cnn(CCCN3CC(CF)C3)c2)Oc2ccc(O)cc21` [Example 51, (R)-2-(1-(3-(3-(fluoromethyl)azetidin-1-yl)propyl)-1H-pyrazol-4-yl)-3-(3-hydroxyphenyl)-4-methyl-2H-chromen-6-ol], in assay [3], the “ER-alpha MCF7 Sinf (%)” value is 94.7%.
Same read-out and setting: as for `CC1=C(/C=C/CO)C(c2ccc(OCCN3CC(CF)C3)cc2)Oc2ccc(O)cc21` (centres unmarked) [Example 52, 2-[4-[2-[3-(fluoromethyl)azetidin-1-yl]ethoxy]phenyl]-3-[(E)-3-hydroxyprop-1-enyl]-4-methyl-2H-chromen-6-ol], the figure is 97.3%.
